Reference: patent US20260273072A1, “NOVEL PLK1 DEGRADATION INDUCING COMPOUND” (UPPTHERA, INC., priority 2023, published 2026)

Tests used:
Assay type in all cases: cell-based
NCI-H526 cell line = assay: Cell viability assay for NCI-H526 cell line (EZ-Cytox); conditions: Homo sapiens, NCI-H526, 120 h; H526 cells, 5 days, 3000 nM to 0.46 nM
In short: (§1)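 IC50 values are binned (A: <30 nM, B: <50 nM, C: <100 nM, D: <200 nM, E: <400 nM) from EZ-Cytox read-outs. Cells were exposed to compound for 5 days, then shaken 3 min and absorbance taken at […].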

PLK1 = molecular target: T1, PLK1 (Homo sapiens, UniProt P53350); assay: Luciferase assay for PLK1 in HeLa LgBit (Plk1-HiBit KI) cell line; conditions: 300 nM compound, luminescence after 9 hours
T1 construct: endogenous in cells; host or cells: HeLa LgBit (Plk1-HiBit KI): HeLa stably expressing LgBit, with a CRISPR/Cas9 knock-in of HiBit at the endogenous PLK1 locus
T1 sequence (P53350 whole entry): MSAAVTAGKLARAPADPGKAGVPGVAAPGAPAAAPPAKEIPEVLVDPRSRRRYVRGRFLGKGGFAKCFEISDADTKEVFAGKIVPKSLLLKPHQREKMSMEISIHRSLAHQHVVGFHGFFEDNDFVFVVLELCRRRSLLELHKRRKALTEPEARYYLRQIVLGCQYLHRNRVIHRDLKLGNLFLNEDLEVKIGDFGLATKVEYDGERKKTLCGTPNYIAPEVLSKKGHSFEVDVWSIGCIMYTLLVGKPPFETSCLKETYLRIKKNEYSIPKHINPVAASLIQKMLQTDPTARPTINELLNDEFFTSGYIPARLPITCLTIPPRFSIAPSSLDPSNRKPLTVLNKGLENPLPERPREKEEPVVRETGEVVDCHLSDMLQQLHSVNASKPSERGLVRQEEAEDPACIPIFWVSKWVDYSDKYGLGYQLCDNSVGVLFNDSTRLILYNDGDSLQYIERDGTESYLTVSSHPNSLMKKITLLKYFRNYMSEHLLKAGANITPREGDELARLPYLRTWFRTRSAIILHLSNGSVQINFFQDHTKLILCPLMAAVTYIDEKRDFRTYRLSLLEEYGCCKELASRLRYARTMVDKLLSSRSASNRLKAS
In short: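 Compounds (300 nM) were added with Endurazine to thymidine-synchronised cells (2 mM, 24 h block, then release and 18 h culture), and luminescence at 470-480 nm was followed live. Cells: HeLa stably expressing LgBit, HiBit knocked into native PLK1 C-terminus. Value: luminescence ratio versus DMSO control.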

NCI-H69 cell line = assay: Cell viability assay for NCI-H69 cell line (EZ-Cytox); conditions: Homo sapiens, NCI-H69, 120 h; H69 cells, 5 days, 3000 nM to 0.46 nM
In short: as §1

MRC-5 cell line = assay: Cell viability assay for MRC-5 cell line (EZ-Cytox); conditions: Homo sapiens, MRC5, 120 h; MRC-5 normal cell line, 5 days, 10000 nM to 1.52 nM; read-out: Activity: IC50 value, cell viability, MRC-5 cell line (Exemplary Compounds)
Procedure: 4. Cell Viability Assay for MRC-5 Cell Line
(1) Culture of MRC-5 Cell Line
The MRC-5 cell line was purchased from KCLB. Passage of cultured cells was maintained within P15.
(2) Treatment of Compounds of the Present Invention
Then, it was cultured in 37° C. CO2 incubator (Thermo Fisher Scientific) for 5 days.
(3) Cytotoxicity Experiment
CO2 incubator for 4 hours.

Row | SMILES | IC50 (NCI-H526 cell line) [nM] | Activity: ratio of the luminescence value of compound treatment group to DMSO treatment group (PLK1) | IC50 (NCI-H69 cell line) [nM] | IC50 (MRC-5 cell line) [nM]
1 | COc1cc(C(=O)NN2CCC(CCN3CCN(c4ccc(NC5CCC(=O)NC5=O)c(F)c4OC)CC3)CC2)ccc1Nc1ncc2c(n1)N(C1CCCC1)CC(F)(F)C(=O)N2C (stereo not shown) [Compound 55, 4-((9-cyclopentyl-7,7-difluoro-5-methyl-6-oxo-6,7,8,9-tetrahydro-5H-pyrimido[4,5-b][1,4]diazepin-2-yl)amino)-N-(4-(2-(4-(4-((2,6-dioxopiperidin-3-yl)amino)-3-fluoro-2-methoxyphenyl)piperazin-1-yl)ethyl)piperidin-1-yl)-3-methoxybenzamide] | < 30 | +++ (+++: <0.3) | < 30 | > 10000
2 | COc1cc(C(=O)NC2CCN(CCC3CCN(c4cc(OC)c(NC5CCC(=O)NC5=O)cc4F)CC3)CC2)c(F)cc1Nc1ncc2c(n1)N(C(C)C)CC(F)(F)C(=O)N2C (stereo not shown) [Compound 50, 4-((7,7-difluoro-9-isopropyl-5-methyl-6-oxo-6,7,8,9-tetrahydro-5H-pyrimido[4,5-b][1,4]diazepin-2-yl)amino)-N-(1-(2-(1-(4-((2,6-dioxopiperidin-3-yl)amino)-2-fluoro-5-methoxyphenyl)piperidin-4-yl)ethyl)piperidin-4-yl)-2-fluoro-5-methoxybenzamide] | < 50 | ++ (++: <0.5) | < 100 | > 10000
3 | COc1cc(C(=O)NN2CCC(CCN3CCN(c4cc(C)c(NC5CCC(=O)NC5=O)cc4F)CC3)CC2)ccc1Nc1ncc2c(n1)N(C(C)C)CC(F)(F)C(=O)N2C (stereo not shown) [Compound 75, 4-((7,7-difluoro-9-isopropyl-5-methyl-6-oxo-6,7,8,9-tetrahydro-5H-pyrimido[4,5-b][1,4]diazepin-2-yl)amino)-N-(4-(2-(4-(4-((2,6-dioxopiperidin-3-yl)amino)-2-fluoro-5-methylphenyl)piperazin-1-yl)ethyl)piperidin-1-yl)-3-methoxybenzamide] | < 30 | +++ (+++: <0.3) | < 30 | > 10000
4 | COc1cc(C(=O)NC2CC3(CCN(CC4CCN(c5cc(OC)c(NC6CCC(=O)NC6=O)cc5F)CC4)CC3)C2)c(F)cc1Nc1ncc2c(n1)N(C(C)C)CC(F)(F)C(=O)N2C (stereo not shown) [Compound 52, 4-((7,7-difluoro-9-isopropyl-5-methyl-6-oxo-6,7,8,9-tetrahydro-5H-pyrimido[4,5-b][1,4]diazepin-2-yl)amino)-N-(7-((1-(4-((2,6-dioxopiperidin-3-yl)amino)-2-fluoro-5-methoxyphenyl)piperidin-4-yl)methyl)-7-azaspiro[3.5]nonan-2-yl)-2-fluoro-5-methoxybenzamide] | < 30 | ++ (++: <0.5) | < 30 | > 10000
5 | COc1cc(C(=O)NC2CC3(CCN(CC4CCN(c5ccc(C6CCC(=O)NC6=O)nc5C)CC4)CC3)C2)ccc1Nc1ncc2c(n1)N(C1CCCC1)CC(F)(F)C(=O)N2C (stereo not shown) [Compound 18, 4-((9-cyclopentyl-7,7-difluoro-5-methyl-6-oxo-6,7,8,9-tetrahydro-5H-pyrimido[4,5-b][1,4]diazepin-2-yl)amino)-N-(7-((1-(6-(2,6-dioxopiperidin-3-yl)-2-methylpyridin-3-yl)piperidin-4-yl)methyl)-7-azaspiro[3.5]nonan-2-yl)-3-methoxybenzamide] | < 30 | ++ (++: <0.5) | < 30 | > 10000
6 | COc1cc(C(=O)NN2CCC(CCN3CCN(c4cc(OC)c(NC5CCC(=O)NC5=O)cc4F)CC3)CC2)c(F)cc1Nc1ncc2c(n1)N(C(C)C)CC(F)(F)C(=O)N2C (stereo not shown) [Compound 43, 4-((7,7-difluoro-9-isopropyl-5-methyl-6-oxo-6,7,8,9-tetrahydro-5H-pyrimido[4,5-b][1,4]diazepin-2-yl)amino)-N-(4-(2-(4-(4-((2,6-dioxopiperidin-3-yl)amino)-2-fluoro-5-methoxyphenyl)piperazin-1-yl)ethyl)piperidin-1-yl)-2-fluoro-5-methoxybenzamide] | < 30 | ++ (++: <0.5) | < 30 | > 10000
7 | COc1cc(C(=O)NC2CC3(CCN(CC4CCN(c5cnc(C6CCC(=O)NC6=O)cc5C)CC4)CC3)C2)ccc1Nc1ncc2c(n1)N(C(C)C)CC(F)(F)C(=O)N2C (stereo not shown) [Compound 19, 4-((7,7-difluoro-9-isopropyl-5-methyl-6-oxo-6,7,8,9-tetrahydro-5H-pyrimido[4,5-b][1,4]diazepin-2-yl)amino)-N-(7-((1-(6-(2,6-dioxopiperidin-3-yl)-4-methylpyridin-3-yl)piperidin-4-yl)methyl)-7-azaspiro[3.5]nonan-2-yl)-3-methoxybenzamide] | < 30 | ++ (++: <0.5) | < 30 | > 10000
8 | COc1cc(C(=O)NN2CCC(CCN3CCN(c4ccc(NC5CCC(=O)NC5=O)c(OC)c4F)CC3)CC2)ccc1Nc1ncc2c(n1)N(C1CCCC1)CC(F)(F)C(=O)N2C (stereo not shown) [Compound 54, 4-((9-cyclopentyl-7,7-difluoro-5-methyl-6-oxo-6,7,8,9-tetrahydro-5H-pyrimido[4,5-b][1,4]diazepin-2-yl)amino)-N-(4-(2-(4-(4-((2,6-dioxopiperidin-3-yl)amino)-2-fluoro-3-methoxyphenyl)piperazin-1-yl)ethyl)piperidin-1-yl)-3-methoxybenzamide] | < 30 | +++ (+++: <0.3) | < 30 | > 10000
9 | COc1cc(C(=O)NN2CCC(CCN3CCN(c4cc(OC)c(NC5CCC(=O)NC5=O)cc4F)CC3)CC2)c(F)cc1Nc1ncc2c(n1)N(C1CCCC1)CC(F)(F)C(=O)N2C (stereo not shown) [Compound 42, 4-((9-cyclopentyl-7,7-difluoro-5-methyl-6-oxo-6,7,8,9-tetrahydro-5H-pyrimido[4,5-b][1,4]diazepin-2-yl)amino)-N-(4-(2-(4-(4-((2,6-dioxopiperidin-3-yl)amino)-2-fluoro-5-methoxyphenyl)piperazin-1-yl)ethyl)piperidin-1-yl)-2-fluoro-5-methoxybenz amide] | < 30 | ++ (++: <0.5) | < 50 | > 10000
10 | COc1cc(C(=O)NN2CCC(CCN3CCN(c4cc(OC)c(NC5CCC(=O)NC5=O)cc4F)CC3)CC2)ncc1Nc1ncc2c(n1)N(C1CCCC1)CC(F)(F)C(=O)N2C (stereo not shown) [Compound 47, 5-((9-cyclopentyl-7,7-difluoro-5-methyl-6-oxo-6,7,8,9-tetrahydro-5H-pyrimido[4,5-b][1,4]diazepin-2-yl)amino)-N-(4-(2-(4-(4-((2,6-dioxopiperidin-3-yl)amino)-2-fluoro-5-methoxyphenyl)piperazin-1-yl)ethyl)piperidin-1-yl)-4-methoxypicolinamide] | < 50 | ++ (++: <0.5) | < 50 | > 10000
